Laboratory results taken from patent publication US6399316B1, “PACAP receptor protein, method for preparing said protein, and use thereof” (Takeda Chemical Industries, Ltd., priority 1994, dated 2002).

Columns and labels:
PACAP receptor = settings: unlabeled peptide, tissue membrane fraction; cited from earlier work
[1] = target: T1, Bovine PACAP receptor protein (Bos taurus, UniProt Q29627); experiment: Intracellular cyclic AMP production of bovine PACAP receptor cDNA-expressed CHO cells; format: cell-based; settings: 37° C., 30 minutes, 0.2 mM 3-isobutyl-1-methylxanthine, FIG. 36
T1 construct: The complete primary structure of bovine PACAP receptor protein based on pBPR-T was deduced; expressed in transfected cells; host or cells: CHO cells, pBPR-T in pRc/CMV, G-418 selected
T1 sequence (Q29627 38-513): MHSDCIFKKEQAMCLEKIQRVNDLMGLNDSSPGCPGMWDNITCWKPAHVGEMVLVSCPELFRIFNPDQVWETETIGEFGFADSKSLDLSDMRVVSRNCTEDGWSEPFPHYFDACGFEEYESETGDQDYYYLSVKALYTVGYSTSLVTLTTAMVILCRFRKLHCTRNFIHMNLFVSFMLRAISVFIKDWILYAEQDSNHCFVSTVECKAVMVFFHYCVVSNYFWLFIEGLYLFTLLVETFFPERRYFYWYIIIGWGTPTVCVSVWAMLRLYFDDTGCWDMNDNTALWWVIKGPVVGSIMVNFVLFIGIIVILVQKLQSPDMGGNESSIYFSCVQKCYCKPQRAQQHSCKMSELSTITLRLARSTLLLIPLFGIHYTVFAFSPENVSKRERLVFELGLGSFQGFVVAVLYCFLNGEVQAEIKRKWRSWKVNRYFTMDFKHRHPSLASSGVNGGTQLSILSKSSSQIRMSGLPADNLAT
Protocol: Three days after the transformants (CHO cells) were plated on a 24-well plate, the cells were washed with Hank's buffer (composition: 8 g/l NaCl, 0.4 g/l KCl, 0.06 g/l Na2HPO4, 1.0 g/l glucose, 0.2 g/l MgSO4, 0.14 g/l CaCl2 and 0.35 g/l NaHCO3) supplemented with 0.05% BSA, and treated in the presence of 0.2 mM 3-isobutyl-1-methylxanthine at 37° C. for 1 hour. […] After the cells were washed with the above-mentioned Hank's buffer supplemented with 0.05% BSA, intracellular cyclic AMP was extracted by the use of 500 μl of Hank's buffer and 100 μl of 20% perchloric acid, and neutralized with 1.5 M KOH. The amount of cyclic AMP was assayed with a cAMP oxygen immunoassay system (BIOTRAK Amersham).

[2] = target: T1, Bovine PACAP receptor protein; experiment: Intracellular inositol phosphate of bovine PACAP receptor cDNA-expressed CHO cells; format: cell-based; settings: 37° C., 20 minutes, FIG. 37
Protocol: The pathway of signal transmission of inositol phosphate well known as the pathway of signal transmission together with cyclic AMP was examined. […] One hundred microliters of 20% perchloric acid was added thereto to stop the reaction, and intracellular inositol phosphate was extracted. The extract was neutralized with 1.5 M KOH. All inositol phosphate was separated from free inositol by the use of ion exchange chromatography (AGI-X8, Bio RAD). Thereafter, inositol phosphate was eluted with 1 M ammonium formate/0.1 M formic acid, and the amount of inositol phosphate was measured with a scintillation counter.

[3] = target: T2, human PACAP receptor protein (Homo sapiens, UniProt P41586); experiment: Competitive inhibition experiment, membrane fraction of human PACAP receptor-expressed CHO-K1 cells; format: binding; settings: FIG. 47
T2 construct: expressed in transfected cells; host or cells: CHO-K1 cells (ICN), pTS849 (pRc/CMV), G-418 selected
T2 sequence (P41586 21-468): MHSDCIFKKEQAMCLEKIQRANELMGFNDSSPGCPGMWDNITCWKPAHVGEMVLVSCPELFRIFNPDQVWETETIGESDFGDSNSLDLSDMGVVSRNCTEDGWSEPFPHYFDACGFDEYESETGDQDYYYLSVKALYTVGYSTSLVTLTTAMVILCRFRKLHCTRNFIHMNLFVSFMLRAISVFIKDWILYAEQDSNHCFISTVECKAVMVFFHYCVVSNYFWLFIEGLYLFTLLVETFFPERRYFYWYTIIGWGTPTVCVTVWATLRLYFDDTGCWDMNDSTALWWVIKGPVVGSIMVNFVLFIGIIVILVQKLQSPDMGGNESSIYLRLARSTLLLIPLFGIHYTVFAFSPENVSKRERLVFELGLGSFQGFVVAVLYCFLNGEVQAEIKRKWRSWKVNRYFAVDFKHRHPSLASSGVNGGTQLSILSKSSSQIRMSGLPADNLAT
Protocol: (§1) The test sample (membrane fraction or solubilized membrane protein fraction) was appropriately diluted with buffer D (20 mM Tris, 5 mM magnesium chloride, 0.1% BSA and 0.05% digitonin, pH 7.4). […] To 0.1 ml of this reaction solution, 1.5 ml of buffer E (0.1% BSA, 0.05% CHAPS, 20 mM Tris and 5 mM magnesium chloride, pH 7.4) cooled with ice was added, and immediately, the mixed solution is filtered through a glass fiber filter. […] Results of the saturation binding experiment were subjected to Scatchard plot analysis to determine the dissociation constant and the maximum binding.

[4] = target: T3, purified bovine PACAP receptor protein (Bos taurus, UniProt Q29627); experiment: Competitive binding experiment for the purified PACAP receptor protein with [125I]PACAP27; settings: vs 100 pM [125I]PACAP27, FIG. 31
T3 construct: from tissue; host or cells: bovine cerebrum
T3 sequence (Q29627 38-513): T1 sequence (Q29627 38-513)
Protocol: as §1
Analysis results obtained by polyacrylamide electrophoresis for the final purified sample in the presence of sodium dodecylsulfate are shown in FIG. 28. […] This protein having a molecular weight of about 57,000 is the PACAP receptor protein occurring in the bovine cerebrums.

[5] = target: T1, Bovine PACAP receptor protein; experiment: Competitive binding experiment, membrane fraction of bovine PACAP receptor cDNA (pBPR-T)-expressed CHO cells; settings: 100 pM [125I]-PACAP27, 25° C., 75 minutes, FIG. 35
Protocol: The transformants (CHO cells) cultivated for 3 days after subculture were separated using 0.2 mM EDTA/phosphate buffer, and suspended in 10 mM sodium carbonate buffer supplemented with 1 mM EDTA, 0.5 mM phenylmethylsulfonyl fluoride (PMSA), 20 μg/ml leupeptin, 4 μg/ml E-64 and 1 μg/ml pepstatin. The suspended cells were disrupted with a Polytron homogenizer (Kinematica). The disrupted product was centrifuged with a high speed cooling centrifuge (CR26H, Roter RR18, Hitachi, Ltd.) at 3,000 rpm for 10 minutes to obtain a supernatant. The resulting supernatant was further ultracentrifuged with an ultracentrifuge (SCP70H, Roter RPZ35T, Hitachi, Ltd.) at 30,000 rpm for 60 minutes to obtain pellets. The resulting pellets were suspended in a buffer [20 mM Tris-HCl (pH 7.4), 0.25 M sucrose, 2 mM EDTa, 0.5 mM PMSF, 20 μg/ml leupeptin and 1 μg/ml pepstatin] to prepare a membrane fraction suspension.
Bound ligands were separated from free ligands through a glass fiber filter. […] The binding was examined with a a γ-ray counter. The dissociation constant and the maximum binding were examined by Scatchard plot analysis (FIG. 34).

[6] = target: T2, human PACAP receptor protein; experiment: Intracellular cyclic AMP of human PACAP receptor protein-expressed CHO-K1 cells; format: cell-based; settings: 37° C., 30 minutes, 0.2 mM 3-isobutyl-1-methylxanthine, FIG. 48
Protocol: After washing twice with Hank's buffer containing the culture buffer, 10 mM HEPES and 0.05% BSA, the CHO-K1 cells were cultivated in the above-mentioned buffer supplemented with 0.2 mM 3-isobutyl-1-methylxanthine at 37° C. for 60 minutes. […] After absorption of the buffer, the cells were washed twice with the culture buffer. Then, cAMP was extracted from the cells with 20% perchloric acid. After transfer to a 1.5-ml Eppendorf tube, the extract was centrifuged with a Tomy microcentrifuge at 12,000 rpm for 5 minutes, and the supernatant was neutralized with 1.5 N KOH/60 mM HEPES to prepare a cell eluted solution. The concentration of cyclic AMP was determined by the acetylation method of a cAMP assay system (Amersham). Under these determination conditions, when nothing was added, the amount of intracellular CAMP was 0.7 pmole/well.

[7] = target: T4, rat PACAP receptor protein Type I-A (pRPR3-A) (Rattus norvegicus, UniProt P32215); experiment: Competitive binding with [125I]-PACAP27, membrane fraction of pRPR3-A-introduced CHO cells; settings: 100 pM [125I]-PACAP27, 25° C., 1 hour, FIG. 40 (A)
T4 construct: pRPACAPR46 and pRPACAPR5 were recombined at the BamHI site to prepare pRPACAPR46-5 having a complete translation frame; expressed in transfected cells; host or cells: CHO cells, pRPR3-A (pRc/CMV); clone A12 for cAMP
T4 sequence (P32215 20-467 isoform P32215-5 limits assumed): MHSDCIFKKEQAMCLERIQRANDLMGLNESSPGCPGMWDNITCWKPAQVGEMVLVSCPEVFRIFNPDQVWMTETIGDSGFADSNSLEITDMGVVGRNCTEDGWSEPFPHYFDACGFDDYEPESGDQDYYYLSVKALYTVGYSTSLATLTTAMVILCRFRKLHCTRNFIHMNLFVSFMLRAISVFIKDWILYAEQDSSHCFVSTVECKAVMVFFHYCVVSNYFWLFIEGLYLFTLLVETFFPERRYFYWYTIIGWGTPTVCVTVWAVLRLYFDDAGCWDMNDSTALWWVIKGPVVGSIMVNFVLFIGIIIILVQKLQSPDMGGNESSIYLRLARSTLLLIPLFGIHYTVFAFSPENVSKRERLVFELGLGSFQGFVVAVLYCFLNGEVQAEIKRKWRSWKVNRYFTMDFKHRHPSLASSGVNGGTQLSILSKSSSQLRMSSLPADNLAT
Protocol: (§2) The pRPR3-A-introduced and pRPR4-B-introduced CHO cells obtained in (2) described above were each disrupted in sodium carbonate buffer containing 1 mM EDTA, 0.5 mM PMSF, 20 μg/ml leupeptin, 4 μg/ml E-64 and 1 μg/ml pepstatin with a Polytron homogenizer (Kinematica) to prepare membrane fractions. Using the membrane fractions, complex binding experiments were conducted. For each of the membrane fractions of the pRPR3-A-introduced CHO cells and the pRPR4-B-introduced CHO cells, each of 10 μg and 15 μg (converted to a protein amount) thereof was ligated with. […] The reaction was conducted at 25° C. for 1 hour, and bound ligands were separated from free ligands by filtration through a filter. […] The amount of bound ligands was measured with a γ-counter.

[8] = target: T5, rat PACAP receptor protein Type I-B (pRPR4-B) (Rattus norvegicus, UniProt P32215); experiment: Competitive binding with [125I]-PACAP27, membrane fraction of pRPR4-B-introduced CHO cells; settings: 100 pM [125I]-PACAP27, 25° C., 1 hour, FIG. 40 (B)
T5 construct: two kinds of complete primary structures of rat PACAP receptor protein were deduced; expressed in transfected cells; host or cells: CHO cells, pRPR4-B (pRc/CMV); clone B17 for cAMP
T5 sequence (P32215 20-495 isoform P32215-2 limits assumed): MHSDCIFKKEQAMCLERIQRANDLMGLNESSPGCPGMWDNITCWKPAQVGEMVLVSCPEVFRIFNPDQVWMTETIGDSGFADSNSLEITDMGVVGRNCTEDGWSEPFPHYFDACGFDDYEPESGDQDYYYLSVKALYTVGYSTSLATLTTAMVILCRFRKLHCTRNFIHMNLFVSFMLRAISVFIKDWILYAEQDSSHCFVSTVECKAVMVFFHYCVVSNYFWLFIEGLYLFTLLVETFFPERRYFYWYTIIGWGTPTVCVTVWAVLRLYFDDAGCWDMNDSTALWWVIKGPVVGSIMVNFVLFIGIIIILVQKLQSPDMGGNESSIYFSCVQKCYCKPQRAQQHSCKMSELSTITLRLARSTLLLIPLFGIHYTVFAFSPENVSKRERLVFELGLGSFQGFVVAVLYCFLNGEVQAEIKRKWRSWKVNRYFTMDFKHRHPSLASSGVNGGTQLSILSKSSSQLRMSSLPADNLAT
Protocol: as §2

[9] = target: T5, rat PACAP receptor protein Type I-B (pRPR4-B); experiment: Intracellular cyclic AMP of rat PACAP receptor cDNA-introduced CHO cells, strain B17; format: cell-based; settings: CHO strain B17, 37° C., 40 minutes, 0.5 mM IBMX, FIG. 43
Protocol: (§3) Each 48-well plate for tissue culture was inoculated with each of the cell strains. at a density of 1.0×10^5 cells/well, followed by cultivation for 3 days. The plate was washed twice with Ham's F12 medium supplemented with 0.1% BSA and 0.5 mM IBMX, and 500 μl/well of the same medium was added thereto. […] The supernatant was removed, and extraction was conducted with 100% cold ethanol. The extract was evaporated to dryness with a centrifugal freeze dryer, and redissolved in the buffer attached to an EIA kit for assaying cyclic AMP (Amersham). Then, the amount of cyclic AMP was assayed according to the formulation of the kit.

[10] = target: T4, rat PACAP receptor protein Type I-A (pRPR3-A); experiment: Intracellular cyclic AMP of rat PACAP receptor cDNA-introduced CHO cells, strain A12; format: cell-based; settings: CHO strain A12, 37° C., 40 minutes, 0.5 mM IBMX, FIG. 43
Protocol: as §3

## PACAP38: pituitary adenylate cyclase activating polypeptide consisting of 38 amino acid residues, SEQ ID NO: 46-NH2
PACAP receptor
  inhibition of [125I]PACAP27 binding to the membrane fraction: inhibited

## PACAP27
[1]
  concentration of intracellular cyclic AMP: increased depending on the concentrations
PACAP receptor
  inhibition of [125I]PACAP27 binding to the membrane fraction: inhibited
[2]
  concentration of inositol phosphate: increased depending on the concentrations
[3]
  competition with [125I]-PACAP27: competed
[4]
  reaction with purified PACAP receptor protein in competitive binding experiment: reacting
[5]
  reactivity (competition with [125I]-PACAP27): high reactivity
[6]
  concentration of intracellular cAMP: increased depending on the concentrations

## Vasoactive intestinal peptide [VIP]
PACAP receptor
  inhibition of [125I]PACAP27 binding to the membrane fraction: not inhibited
[7]
  competition with [125I]-PACAP27: competition was observed only at a concentration much higher than that of PACAP27
[8]
  competition with [125I]-PACAP27: competition was observed only at a concentration much higher than that of PACAP27
[3]
  weakness relative to PACAP27 in competitive inhibition: 1,000 times
[4]
  reaction with purified PACAP receptor protein in competitive binding experiment: not reacting
[9]
  production of intracellular cyclic AMP: a concentration much higher than that of the PACAPs was required
[5]
  reactivity (competition with [125I]-PACAP27): low in reactivity
[10]
  production of intracellular cyclic AMP: a concentration much higher than that of the PACAPs was required
[6]
  concentration of intracellular cAMP: little raised
